Holding throughout (assay): NCI-60 cell line screen, 48 h
Experiment [1] has as its system A549 NSCLC.
Experiment [2] deals with ACHN renal.
Experiment [3] relates to HOP-92 NSCLC.
Experiment [4] deals with IGROV1 ovarian.
In experiment [5] the test system is MCF7 breast.
In experiment [6] the test system is MDA-MB-435.
Experiment [7] has as its system MDA-N.
Experiment [8] concerns MOLT-4 leukemia.
Experiment [9] relates to NCI-H226 lung.
Experiment [10] concerns PC-3 prostate.
Experiment [11] deals with RPMI-8226 leukemia.
Experiment [12] deals with UACC-257 melanoma.

The source of these data is PubChem BioAssay (NCI).

SMILES strings stand for the structures.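 Where inhibition never reached the appropriate level, the endpoint shown equals the highest concentration tested. Otherwise, values were interpolated linearly from a five-concentration, 48-hour dose response in 96-well plates. Definition used: TGI = concentration required for complete inhibition of growth.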

Take `Cc1cc(C)nc(NS(=O)(=O)c2ccc(Nc3c4ccccc4nc4ccc(C(=O)Nc5ccc(S(=O)(=O)N=C(N)N)cc5)cc34)cc2)n1`: the TGI was greater than 100 µM in experiment [1]; greater than 100 µM in [2]; greater than 100 µM in experiment [3]; greater than 100 µM in experiment [4]; 43.9 µM in experiment [5]; greater than 100 µM in experiment [6]. Besides, the TGI in [7], in experiment [8], in experiment [9], in experiment [10], in [11] and in [12] was greater than 100 µM throughout.

`C#CCOC(=O)C(=[N+]=[N-])C(=O)CC(C)C`: the TGI in experiment [1], in [2], in experiment [3], in experiment [4], in [5] and in [6] was greater than 10 µM in each case. The TGI in experiment [7], in [8], in [9], in experiment [10], in experiment [11] and in [12] was greater than 10 µM each time.

With `COc1ccc(N=Nc2c(N)nn3c(SC)c(C#N)c(N)nc23)cc1`, the TGI came out at 36.9 µM in experiment [1]; 28 µM in [2]; 27.6 µM in experiment [3]; 4.19 µM in experiment [4]; 7.97 µM in [5]; 27.1 µM in [6]. For the same compound, the TGI in experiment [7] came to 26.7 µM; in experiment [8] it was 7.53 µM; in experiment [9], 40.7 µM; in experiment [10], 21.5 µM; in [11], 6.28 µM; in experiment [12], 20.8 µM.

Regarding `COC1OC(C(=O)O)C2OC(C)(C)OC12` (stereo not drawn), the TGI in [1], in experiment [2], in experiment [3], in experiment [4], in experiment [5] and in experiment [6] was greater than 100 µM in each case. The TGI in experiment [7], in [8], in experiment [9], in experiment [10], in [11] and in experiment [12] was greater than 100 µM each time.

With `CSc1nc(C)c2c(n1)N(c1ccc(Cl)cc1)CC2`, the TGI in experiment [1], in [2], in experiment [3], in experiment [4], in [5] and in experiment [6] was greater than 100 µM throughout. The TGI in [7], in [8], in experiment [9], in experiment [10], in [11] and in [12] was greater than 100 µM in each case.

Consider `CCOC(=O)c1cn(CC)c2ccc3c(c2c1=O)S(=O)(=O)C=C3`, for which the TGI in experiment [1], in [2], in experiment [3], in experiment [4], in [5] and in [6] was greater than 100 µM each time. The TGI in experiment [7], in experiment [8], in experiment [9], in experiment [10], in experiment [11] and in experiment [12] was greater than 100 µM throughout.

With `COC(=O)C(=O)C(C(=O)C(=O)Nc1ccc(C)c(C)c1)c1nc2ccc([N+](=O)[O-])cc2[nH]c1=O` (stereo not drawn), the TGI in [1], in experiment [2], in [3], in experiment [4], in experiment [5] and in [6] was greater than 100 µM each time. The TGI in [7], in experiment [8], in experiment [9], in [10], in experiment [11] and in experiment [12] was greater than 100 µM throughout.

For `O=c1c2cc(I)ccc2nc(-c2cccs2)n1O`, the TGI in [1] is 61.2 µM; in [2] it was greater than 100 µM; in experiment [3], 79.6 µM; in experiment [4] it was greater than 100 µM; in experiment [5], greater than 100 µM; in experiment [6], greater than 100 µM. Also, the TGI in [7], in [8], in [9], in [10], in [11] and in experiment [12] was greater than 100 µM in each case.

Turning to `c1cc2c(cc1[C@@H]1OC[C@@H]3[C@H]1CO[C@H]3c1ccc3c(c1)OCO3)OCO2`, the TGI in experiment [1], in experiment [2], in experiment [3], in experiment [4], in [5] and in experiment [6] was greater than 100 µM each time. For the same compound, the TGI in experiment [7] is greater than 100 µM; in experiment [8] it was greater than 100 µM; in experiment [9], greater than 100 µM; in experiment [10], greater than 100 µM; in [11], greater than 100 µM; in [12] it was 80.7 µM.
